Test results reported in PubChem BioAssay (NCI).
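Assay format: 96-well plates, 48-hour exposure. GI50 marks 50% less growth. At the TGI there is no net growth.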

How the values were obtained:
Test in all cases: NCI-60 cell line screen, 48 h
[1] = test system: A549 NSCLC
[2] = test system: SF-539 CNS
[3] = test system: MALME-3M melanoma
[4] = test system: A498 renal
[5] = test system: LOX IMVI melanoma
[6] = test system: 786-0 renal
[7] = test system: KM12 colon
[8] = test system: T-47D breast
[9] = test system: NCI/ADR-RES ovarian
[10] = test system: MDA-MB-231 breast

SMILES | GI50 [1] | TGI [1] | GI50 [2] | TGI [2] | GI50 [3] | TGI [3] | GI50 [4] | TGI [4] | GI50 [5] | TGI [5] | GI50 [6] | TGI [6] | GI50 [7] | TGI [7] | GI50 [8] | TGI [8] | GI50 [9] | TGI [9] | GI50 [10] | TGI [10]
CC(=O)c1c(C)[nH]c(-c2nc3ccc(N4CCN(C)CC4)cc3[nH]2)c1-c1ccc(N(C)C)cc1 | 1.04 µM | > 48.4 µM | 1.15 µM | 17.7 µM | 0.812 µM | 5.1 µM | 0.323 µM | 1.98 µM | 0.359 µM | 1.85 µM | 1.44 µM | 16.7 µM | 1.34 µM | 20.2 µM | 0.434 µM | 16.6 µM | 0.916 µM | > 100 µM | 0.645 µM | 16.9 µM
N=c1ccn(O)cc1/C=C1/C(=O)Nc2ccccc21 | > 100 µM | > 100 µM | > 100 µM | > 100 µM | > 100 µM | > 100 µM | > 100 µM | > 100 µM | > 100 µM | > 100 µM | > 100 µM | > 100 µM | > 100 µM | > 100 µM | > 100 µM | > 100 µM | > 100 µM | > 100 µM | > 100 µM | > 100 µM
CCC(=C/[C@H](C)C/C=C/C(C)=C/[C@@H](C)C(=O)[C@@H](C)[C@H](O)[C@@H](C)CC)/C=C/[C@@H]1OC(=O)C=C[C@H]1C | < 0.01 µM | 1.86 µM | < 0.01 µM | – | < 0.01 µM | 0.0157 µM | < 0.01 µM | < 0.01 µM | < 0.01 µM | < 0.01 µM | < 0.01 µM | < 0.01 µM | < 0.01 µM | 0.126 µM | < 0.01 µM | 2.13 µM | < 0.01 µM | 2.17 µM | < 0.01 µM | 1.77 µM
C/C(=N\NS(=O)(=O)c1ccc(C)cc1)P(=O)(O)O | – | > 100 µM | – | > 100 µM | – | > 100 µM | – | > 100 µM | – | > 100 µM | – | > 100 µM | – | > 100 µM | – | > 100 µM | – | > 100 µM | – | > 100 µM
Clc1ccc(-c2c3c(nn2-c2ccccn2)CCc2ccccc2-3)cc1Cl | > 100 µM | > 100 µM | > 100 µM | > 100 µM | 47.9 µM | > 100 µM | > 100 µM | > 100 µM | > 100 µM | > 100 µM | 85 µM | > 100 µM | > 100 µM | > 100 µM | > 100 µM | > 100 µM | > 100 µM | > 100 µM | 73.7 µM | > 100 µM
COc1cccc(NC(=O)c2sc3nc(C)c(C(O)c4ccccc4)cc3c2N)c1 (centres undefined) | 0.402 µM | 21 µM | 0.185 µM | 0.598 µM | 0.58 µM | 27.4 µM | 0.0971 µM | 0.615 µM | 0.264 µM | 18.6 µM | 0.665 µM | 26.6 µM | 0.337 µM | 11.8 µM | 0.737 µM | 28.4 µM | 0.245 µM | 0.941 µM | 0.345 µM | 33.5 µM
CC(C)=CCC[C@](C)(O)[C@H]1CC[C@]2(C)[C@@H]1CC[C@@H]1[C@@]3(C)CC/C(=N/O)C(C)(C)[C@@H]3CC[C@]12C | 5.86 µM | 62.9 µM | 24.3 µM | > 100 µM | 8.25 µM | 32.6 µM | 51.2 µM | > 100 µM | 15.7 µM | 83 µM | 14.3 µM | 69.3 µM | 12.5 µM | > 100 µM | 2.86 µM | 88.1 µM | 18.9 µM | > 100 µM | 9.95 µM | 37.4 µM
